# Measurements from patent publication US9717748B2, “Compositions and methods for treating an infection” (CMPD LICENSING, LLC, priority 2015, dated 2017).
# Key:
# Aspergillus fumigatus = assay: Expected efficacy of antifungal agents
# Scedosporium apiospermum = assay: Expected efficacy of antifungal agents
# Aspergillus flavus = assay: Expected efficacy of antifungal agents
# [1] = test system: Staphylococcus aureus (MSSA); assay: Expected efficacy of antibiotic agents; conditions: Gram: pos
# Haemophilus ducreyi = assay: Expected efficacy of antibiotic agents; conditions: Gram: neg
# Bordetella pertussis = assay: Expected efficacy of antibiotic agents; conditions: Gram: neg
# Diphtheroids = assay: Expected efficacy of antibiotic agents; conditions: Gram: pos
# Proteus mirabilis = assay: Expected efficacy of antibiotic agents; conditions: Gram: neg
# Peptostreptococcus = assay: Expected efficacy of antibiotic agents; conditions: Gram: pos
# Yersinia pestis = conditions: Gram: neg
# Enterococcus faecalis = assay: Expected efficacy of antibiotic agents; conditions: Gram: pos
# Campylobacter jejuni = assay: Expected efficacy of antibiotic agents; conditions: Gram: neg
# Neisseria meningitidis = assay: Expected efficacy of antibiotic agents; conditions: Gram: neg
# Clostridium difficile = assay: Expected efficacy of antibiotic agents; conditions: Gram: anaer
# Vibrio cholerae = assay: Expected efficacy of antibiotic agents; conditions: Gram: neg
# Streptococcus pyogenes = assay: Expected efficacy of antibiotic agents; conditions: Gram: pos
# [2] = test system: Acinetobacter calcoaceticus; assay: Expected efficacy of antibiotic agents; conditions: Gram: neg
# Chlamydia trachomatis = assay: Expected efficacy of antibiotic agents; conditions: Gram: n/a
# [3] = test system: Corynebacterium urealyticum; assay: Expected efficacy of antibiotic agents; conditions: Gram: pos
# Streptococcus pneumoniae = assay: Expected efficacy of antibiotic agents; conditions: Gram: pos
# Moraxella catarrhalis = assay: Expected efficacy of antibiotic agents; conditions: Gram: neg
# [4] = test system: Staphylococcus epidermidis; assay: Expected efficacy of antibiotic agents; conditions: Gram: pos
# Klebsiella pneumoniae = assay: Expected efficacy of antibiotic agents; conditions: Gram: neg
# Chlamydia psittaci = conditions: Gram: n/a
# Enterobacter sakazakii = assay: Expected efficacy of antibiotic agents; conditions: Gram: neg
# [5] = test system: Viridans group streptococci; assay: Expected efficacy of antibiotic agents; conditions: Gram: pos
# Shigella flexneri = assay: Expected efficacy of antibiotic agents; conditions: Gram: neg
# Shigella sonnei = assay: Expected efficacy of antibiotic agents; conditions: Gram: neg
# Chlamydia pneumoniae = assay: Expected efficacy of antibiotic agents; conditions: Gram: n/a
# Clostridium perfringens = conditions: Gram: anaer
# Streptococcus agalactiae = assay: Expected efficacy of antibiotic agents; conditions: Gram: pos
# Mycoplasma pneumoniae = assay: Expected efficacy of antibiotic agents; conditions: Gram: n/a
# Pseudomonas aeruginosa = assay: Expected efficacy of antibiotic agents; conditions: Gram: neg
# [6] = test system: Klebsiella (Calymmato-bacterium) granulomatis; assay: Expected efficacy of antibiotic agents; conditions: Gram: neg
# Enterobacter cloacae = assay: Expected efficacy of antibiotic agents; conditions: Gram: neg
# Shigella dysenteriae = assay: Expected efficacy of antibiotic agents; conditions: Gram: neg
# Enterococcus faecium = assay: Expected efficacy of antibiotic agents; conditions: Gram: pos
# Citrobacter freundii = assay: Expected efficacy of antibiotic agents; conditions: Gram: neg
# Acinetobacter lwoffii = assay: Expected efficacy of antibiotic agents; conditions: Gram: neg
# Neisseria gonorrhoeae = assay: Expected efficacy of antibiotic agents; conditions: Gram: neg
# Corynebacterium jeikeium = assay: Expected efficacy of antibiotic agents; conditions: Gram: pos
# [7] = test system: Methicillin resistant staphaureus (MRSA); assay: Expected efficacy of antibiotic agents; conditions: Gram: pos
# Acinetobacter baumannii = assay: Expected efficacy of antibiotic agents; conditions: Gram: neg
# Bacteroides fragilis = assay: Expected efficacy of antibiotic agents; conditions: Gram: anaer
# Legionella pneumophila = conditions: Gram: neg
# Cryptococcus neoformans = assay: Expected efficacy of antifungal agents
# Leishmania infantum = assay: Expected efficacy of antifungal agents
# [8] = test system: Trichophyton mentagrophytes; assay: Expected efficacy of antifungal agents
compound,measurement,setting,value
C[C@@H](c1ncncc1F)[C@](O)(Cn1cncn1)c1ccc(F)cc1F [Voriconazole],Expected efficacy against Aspergillus fumigatus,Aspergillus fumigatus,yes
same,Expected efficacy against Scedosporium apiospermum,Scedosporium apiospermum,yes
same,Expected efficacy against Aspergillus flavus,Aspergillus flavus,yes
NC[C@H]1O[C@H](O[C@H]2[C@H](O)[C@@H](O[C@H]3O[C@H](CO)[C@@H](O)[C@H](N)[C@H]3O)[C@H](N)C[C@@H]2N)[C@H](N)C[C@@H]1O [Tobramycin],Expected efficacy against Staphylococcus aureus (MSSA),[1],no
same,Expected efficacy against Haemophilus ducreyi,Haemophilus ducreyi,yes
same,Expected efficacy against Bordetella pertussis,Bordetella pertussis,no
same,Expected efficacy against Diphtheroids,Diphtheroids,no
same,Expected efficacy against Proteus mirabilis,Proteus mirabilis,yes
same,Expected efficacy against Peptostreptococcus,Peptostreptococcus,no
same,Expected efficacy against Yersinia pestis,Yersinia pestis,yes
same,Expected efficacy against Enterococcus faecalis,Enterococcus faecalis,no
same,Expected efficacy against Campylobacter jejuni,Campylobacter jejuni,yes
same,Expected efficacy against Neisseria meningitidis,Neisseria meningitidis,no
same,Expected efficacy against Clostridium difficile,Clostridium difficile,no
same,Expected efficacy against Vibrio cholerae,Vibrio cholerae,no
same,Expected efficacy against Streptococcus pyogenes,Streptococcus pyogenes,no
same,Expected efficacy against Acinetobacter calcoaceticus,[2],no
same,Expected efficacy against Chlamydia trachomatis,Chlamydia trachomatis,no
same,Expected efficacy against Corynebacterium urealyticum,[3],no
same,Expected efficacy against Streptococcus pneumoniae,Streptococcus pneumoniae,no
same,Expected efficacy against Moraxella catarrhalis,Moraxella catarrhalis,yes
same,Expected efficacy against Staphylococcus epidermidis,[4],no
same,Expected efficacy against Klebsiella pneumoniae,Klebsiella pneumoniae,yes
same,Expected efficacy against Chlamydia psittaci,Chlamydia psittaci,no
same,Expected efficacy against Enterobacter sakazakii,Enterobacter sakazakii,yes
same,Expected efficacy against Viridans group streptococci,[5],no
same,Expected efficacy against Shigella flexneri,Shigella flexneri,yes
same,Expected efficacy against Shigella sonnei,Shigella sonnei,yes
same,Expected efficacy against Chlamydia pneumoniae,Chlamydia pneumoniae,no
same,Expected efficacy against Clostridium perfringens,Clostridium perfringens,no
same,Expected efficacy against Streptococcus agalactiae,Streptococcus agalactiae,no
same,Expected efficacy against Mycoplasma pneumoniae,Mycoplasma pneumoniae,no
same,Expected efficacy against Pseudomonas aeruginosa,Pseudomonas aeruginosa,yes
same,Expected efficacy against Klebsiella (Calymmato-bacterium) granulomatis,[6],yes
same,Expected efficacy against Enterobacter cloacae,Enterobacter cloacae,yes
same,Expected efficacy against Shigella dysenteriae,Shigella dysenteriae,yes
same,Expected efficacy against Enterococcus faecium,Enterococcus faecium,no
same,Expected efficacy against Citrobacter freundii,Citrobacter freundii,yes
same,Expected efficacy against Acinetobacter lwoffii,Acinetobacter lwoffii,no
same,Expected efficacy against Neisseria gonorrhoeae,Neisseria gonorrhoeae,no
same,Expected efficacy against Corynebacterium jeikeium,Corynebacterium jeikeium,no
same,Expected efficacy against Methicillin resistant staphaureus (MRSA),[7],no
same,Expected efficacy against Acinetobacter baumannii,Acinetobacter baumannii,no
same,Expected efficacy against Bacteroides fragilis,Bacteroides fragilis,no
same,Expected efficacy against Legionella pneumophila,Legionella pneumophila,no
C[C@@H]1[C@H](O)[C@@H](C)/C=C/C=C/C=C/C=C/C=C/C=C/C=C/[C@H](O[C@@H]2O[C@H](C)[C@@H](O)[C@H](N)[C@@H]2O)C[C@@H]2O[C@](O)(C[C@@H](O)C[C@@H](O)[C@H](O)CC[C@@H](O)C[C@@H](O)CC(=O)O[C@H]1C)C[C@H](O)[C@H]2C(=O)O [Amphotericin],Expected efficacy against Cryptococcus neoformans,Cryptococcus neoformans,yes
same,Expected efficacy against Aspergillus fumigatus,Aspergillus fumigatus,yes
same,Expected efficacy against Coccidioides immitis,Coccidioides immitis,yes
same,Expected efficacy against Leishmania infantum,Leishmania infantum,yes
same,Expected efficacy against Aspergillus flavus,Aspergillus flavus,yes
CCC(C)n1ncn(-c2ccc(N3CCN(c4ccc(OC[C@H]5CO[C@](Cn6cncn6)(c6ccc(Cl)cc6Cl)O5)cc4)CC3)cc2)c1=O (mixture of isomers) [Itraconazole],Expected efficacy against Cryptococcus neoformans,Cryptococcus neoformans,yes
same,Expected efficacy against Aspergillus fumigatus,Aspergillus fumigatus,yes
same,Expected efficacy against Coccidioides immitis,Coccidioides immitis,yes
same,Expected efficacy against Trichophyton mentagrophytes,[8],yes
same,Expected efficacy against Aspergillus flavus,Aspergillus flavus,yes
